Drawing on US10123995B2, “Factor XIa inhibitors” (MERCK SHARP & DOHME CORP., priority 2015, dated 2018), this text covers IC50 for two molecules.

Experiment [1] concerns the target purified human Factor XIa (Homo sapiens (Human), UniProt P03951). Kind of experiment: Factor XIa Assay. To be noted: Factor XIa inhibition; substrate Z-Gly-Pro-Arg-AFC, pH 7.4; read-out: hFXIa IC50. The class given is biochemical. The method, then: The effectiveness of a compound of the present invention as an inhibitor of Coagulation Factor XIa can be determined using a relevant purified serine protease, and an appropriate synthetic substrate. The rate of hydrolysis of the chromogenic or fluorogenic substrate by the relevant serine protease was measured both in the absence and presence of compounds of the present invention. Assays were conducted at room temperature or at 37° C. […] A decrease in the rate of fluorescence change in the presence of inhibitor is indicative of enzyme inhibition. Such methods are known to one skilled in the art. […]
Factor XIa determinations were made in 50 mM HEPES buffer at pH 7.4 containing 150 mM NaCl, 5 mM CaCl2, and 0.1% PEG 8000 (polyethylene glycol; JT Baker or Fisher Scientific). Determinations were made using purified human Factor XIa at a final concentration of 40 pM (Sekisui Diagnostics) and the synthetic substrate, Z-Gly-Pro-Arg-AFC, TFA salt (Sigma #C0980) at a concentration of 100 μM.
Activity assays were performed by diluting a stock solution of substrate at least tenfold to a final concentration ≤0.1 Km into a solution containing enzyme or enzyme equilibrated with inhibitor. Times required to achieve equilibration between enzyme and inhibitor were determined in control experiments. Initial velocities of product formation in the absence (Vo) or presence of inhibitor (Vi) were measured. Assuming competitive inhibition, and that unity is negligible compared Km/[S], [I]/e, and [I]/e (where [S], [I], and e respectively represent the total concentrations, of substrate, inhibitor and enzyme), the equilibrium constant (Ki) for dissociation of the inhibitor from the enzyme can be obtained from the dependence of Vo/Vi on [I] shown in the following equation. Vo/Vi=1+[I]/Ki

The target of experiment [2] is purified Human plasma kallikrein (Homo sapiens (Human), UniProt P03952). Kind of experiment: Kallikrein Assay. Format: biochemical. The conditions noted are these: table titled Kalikrein inhibition (column head prints hFXIa), substrate Acetyl-K-P-R-AFC, pH 7.4. As to the method: The effectiveness of a compound of the present invention as an inhibitor of Kallikrein can be determined using a relevant purified serine protease, and an appropriate synthetic substrate. The rate of hydrolysis of the chromogenic or fluorogenic substrate by the relevant serine protease was measured both in the absence and presence of compounds of the present invention. Assays were conducted at room temperature or at 37° C. […] A decrease in the rate of fluorescence change in the presence of inhibitor is indicative of enzyme inhibition. Such methods are known to one skilled in the art. The results of this assay are expressed as the inhibitory constant, Ki.
Kallikrein determinations were made in 50 mM HEPES buffer at pH 7.4 containing 150 mM NaCl, 5 mM CaCl2, and 0.1% PEG 8000 (polyethylene glycol; Fisher Scientific). Determinations were made using purified Human plasma kallikrein at a final concentration of 0.5 nM (Enzyme Research Laboratories) and the synthetic substrate, Acetyl-K-P-R-AFC (Sigma # C6608) at a concentration of […].
Activity assays were performed by diluting a stock solution of substrate at least tenfold to a final concentration ≤0.2 Km into a solution containing enzyme or enzyme equilibrated with inhibitor. Times required to achieve equilibration between enzyme and inhibitor were determined in control experiments. The reactions were performed under linear progress curve conditions and fluorescence increase measured at 405 Ex/510 Em nm. Values were converted to percent inhibition of the control reaction (after subtracting 100% Inhibition value). IC50 was determined by inflection point from a four parameter logistic curve fit. Ki was calculated using the Cheng Prusoff equation, Ki=IC50/(1+([S]/Km)).

Chain of purified Human plasma kallikrein (P03952 391-638): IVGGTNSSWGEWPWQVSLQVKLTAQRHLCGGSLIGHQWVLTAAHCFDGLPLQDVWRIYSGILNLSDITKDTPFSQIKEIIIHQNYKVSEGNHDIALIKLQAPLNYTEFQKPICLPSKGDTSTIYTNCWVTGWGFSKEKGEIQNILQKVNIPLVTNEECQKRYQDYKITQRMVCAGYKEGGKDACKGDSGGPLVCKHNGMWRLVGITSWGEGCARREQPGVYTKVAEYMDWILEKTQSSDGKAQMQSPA
Chain of purified Human plasma kallikrein (P03952 20-390 partner): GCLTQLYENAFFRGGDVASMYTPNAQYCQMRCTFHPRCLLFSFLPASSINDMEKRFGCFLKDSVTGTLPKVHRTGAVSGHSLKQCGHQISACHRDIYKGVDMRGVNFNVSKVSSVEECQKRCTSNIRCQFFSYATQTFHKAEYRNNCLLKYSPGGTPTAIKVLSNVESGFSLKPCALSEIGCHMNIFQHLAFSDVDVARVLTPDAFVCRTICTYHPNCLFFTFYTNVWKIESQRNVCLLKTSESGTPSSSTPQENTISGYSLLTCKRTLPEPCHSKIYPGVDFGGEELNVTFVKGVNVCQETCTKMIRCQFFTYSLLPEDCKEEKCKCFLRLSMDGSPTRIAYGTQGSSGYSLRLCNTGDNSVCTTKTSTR
Chain of purified human Factor XIa (P03951 388-625): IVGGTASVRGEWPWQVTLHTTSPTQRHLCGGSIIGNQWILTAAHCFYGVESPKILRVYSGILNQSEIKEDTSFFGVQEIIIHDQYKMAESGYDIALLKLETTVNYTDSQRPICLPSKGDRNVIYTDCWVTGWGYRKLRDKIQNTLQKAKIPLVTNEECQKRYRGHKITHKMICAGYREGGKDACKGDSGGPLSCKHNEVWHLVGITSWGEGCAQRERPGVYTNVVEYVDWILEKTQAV
Chain of purified human Factor XIa (P03951 19-387 partner): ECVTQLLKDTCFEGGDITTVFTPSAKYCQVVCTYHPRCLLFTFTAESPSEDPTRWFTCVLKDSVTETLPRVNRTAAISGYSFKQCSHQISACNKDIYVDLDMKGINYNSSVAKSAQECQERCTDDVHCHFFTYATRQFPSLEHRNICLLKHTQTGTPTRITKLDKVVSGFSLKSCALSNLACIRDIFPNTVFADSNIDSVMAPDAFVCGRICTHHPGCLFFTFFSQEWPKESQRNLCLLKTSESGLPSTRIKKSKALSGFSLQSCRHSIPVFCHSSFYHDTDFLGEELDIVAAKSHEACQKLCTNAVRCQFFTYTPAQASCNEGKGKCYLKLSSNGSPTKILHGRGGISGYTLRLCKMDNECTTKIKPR

One may read the IC50 as the concentration that inhibits the measured activity by half. Consider `O=C(O)c1ccc(NC(=O)C2(O)CC(O)c3cc(-c4cc(Cl)ccc4-n4cnnn4)c[n+]([O-])c32)cc1` (stereo not shown) [Example 8, 4-[({3-[5-Chloro-2-(1H-tetrazol-1-yl)phenyl]-5,7-dihydroxy-1-oxido-6,7-dihydro-5H-cyclopenta[b]pyridin-7-yl}carbonyl)amino]benzoic acid], for which the values for the IC50 in experiment [1] and in experiment [2] were 4.2 nM and 816 nM, respectively.
For `O=C(O)c1ccc(NC(=O)C2(O)CCc3cc(-c4cc(Cl)ccc4-n4cnnn4)c[n+]([O-])c32)cc1` (stereo not shown) [Example 19, 4-[({3-[5-Chloro-2-(1H-tetrazol-1-yl)phenyl]-7-hydroxy-1-oxido-6,7-dihydro-5H-cyclopenta[b]pyridin-7-yl}carbonyl)amino]benzoic acid] the same measures were 6 nM and 1370 nM.
